Test [1] concerns the target T1, human MR (Homo sapiens, UniProt P08235).
T1 construct: The full length human MR gene is cloned from a human kidney or human brain cDNA library; His tag from the pAcHLT vector (own knowledge); made in house; host or cells: Sf9 insect cells (baculovirus, pAcHLT transfer vector)
T1 sequence (P08235 1-984): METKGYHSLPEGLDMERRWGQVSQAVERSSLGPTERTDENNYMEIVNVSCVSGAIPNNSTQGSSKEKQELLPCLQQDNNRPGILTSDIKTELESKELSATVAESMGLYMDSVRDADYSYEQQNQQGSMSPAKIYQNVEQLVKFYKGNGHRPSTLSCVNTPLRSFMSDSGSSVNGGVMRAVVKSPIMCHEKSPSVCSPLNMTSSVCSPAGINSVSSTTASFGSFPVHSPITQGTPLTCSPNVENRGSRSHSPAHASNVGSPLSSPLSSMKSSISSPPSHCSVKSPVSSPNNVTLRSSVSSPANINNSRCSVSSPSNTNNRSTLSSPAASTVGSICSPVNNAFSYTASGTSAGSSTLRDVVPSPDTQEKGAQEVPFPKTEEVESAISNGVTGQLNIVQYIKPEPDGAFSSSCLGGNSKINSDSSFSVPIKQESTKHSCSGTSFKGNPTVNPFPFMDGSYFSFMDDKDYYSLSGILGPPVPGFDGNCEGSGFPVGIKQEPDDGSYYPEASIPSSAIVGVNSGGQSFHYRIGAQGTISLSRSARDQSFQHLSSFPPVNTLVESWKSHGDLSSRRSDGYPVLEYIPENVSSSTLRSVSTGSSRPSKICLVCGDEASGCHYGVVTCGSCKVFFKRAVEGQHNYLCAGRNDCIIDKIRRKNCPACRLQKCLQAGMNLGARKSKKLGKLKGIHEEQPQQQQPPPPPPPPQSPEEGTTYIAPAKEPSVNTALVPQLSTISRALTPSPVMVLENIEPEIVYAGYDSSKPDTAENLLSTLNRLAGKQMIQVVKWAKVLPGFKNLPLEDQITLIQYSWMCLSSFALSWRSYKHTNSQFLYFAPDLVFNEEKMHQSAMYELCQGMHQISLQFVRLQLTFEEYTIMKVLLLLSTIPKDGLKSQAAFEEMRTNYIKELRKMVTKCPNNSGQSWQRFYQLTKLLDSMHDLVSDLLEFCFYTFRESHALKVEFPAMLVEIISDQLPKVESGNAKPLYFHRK
Nature of the test: Mineralocorticoid Receptor Binding Assay ([3H]-aldosterone). As to the method:
(§1) All ligands, radioligands, solvents, and reagents employed in the binding assays are readily available from commercial sources, or can be readily synthesized by the ordinarily skilled artisan.
The full length human MR gene is cloned from a human kidney or human brain cDNA library. […] The PCR reaction is performed in a final volume of 50 μl containing about 1 μl of a 50× stock solution of polymerase; about 1 μl of a 50× stock solution of dNTP; about 5 μl of an appropriate PCR buffer; about 1 μl of each primer; about […] of a H. kidney or H. brain cDNA library; and about 36 μl of water. The reaction is allowed to denature for about 30 seconds at 95 degrees Celsius, anneal for about 30 seconds at 55 degrees Celsius, and extend for about 5 minutes at 72 degrees Celsius, the sequence being repeated for a total of about 35 cycles. […] To extract the cDNA product from the agarose gel, the QIAEX II Gel Extraction protocol (QIAGEN, Inc.) is employed according to the manufacturer's instructions. Following extraction, the MR cDNA is cloned into an appropriate cloning vector (Zero Blunt TOPO PCR Cloning Kit Invitrogen, Inc.) and a pAcHLT-baculovinis transfer vector (B.D./Pharminogen), then expressed in SF9 insect cells, essentially according to manufacturer's instructions. Sf9 cells are grown at a scale where gram quantity cell pellets are obtained for subsequent use in the MR binding assay. Harvested cell pellets are lysed by repeated freeze-thaw cycles (about 4) in a suitable lysis buffer then centrifuged at about 1×10^3 G (with the supernatant being saved for future assays).
MR binding assays are performed in a final total volume of about 250 μl containing about 20-25 μg of protein and 0.5 nM of [^3H]-aldosterone plus varying concentrations of test compound or vehicle. The assay binding buffer consists of 30 mM sodium molybdate, 30 mM of TRIS-HCl, 5 mM sodium phosphate, 5 mM sodium pyrophosphate, and about 10% glycerol, pH=7.5.
Incubations are carried out at 4 degrees Celsius with shaking for about 16 hours. 200 μl aliquots of each incubation are filtered onto Millipore HA 0.45 micron 96-well filter plates, pre-moistened with cold 30 mM TRIS-HCl. The filter plates are suctioned dry with vacuum and immediately washed 3× with cold 30 mM TRIS-HCl. The plates are then punched out and the amount of receptor-ligand complex is determined by liquid scintillation counting using 4 ml of Ready Protein Plus™ liquid scintillation cocktail.
IC50 values (defined as the concentration of test compound required to decrease [^3H]-aldosterone binding by 50%/o) are then determined.

In test [2] the target is T2, glucocorticoid receptor (Homo sapiens, UniProt P04150).
T2 construct: containing 50-200 ug of A549 cell extract and 1.86 nM [^3H]-dexamethasone; host or cells: A549 human lung epithelial cells (sonicated cell extract)
T2 sequence (P04150 1-777): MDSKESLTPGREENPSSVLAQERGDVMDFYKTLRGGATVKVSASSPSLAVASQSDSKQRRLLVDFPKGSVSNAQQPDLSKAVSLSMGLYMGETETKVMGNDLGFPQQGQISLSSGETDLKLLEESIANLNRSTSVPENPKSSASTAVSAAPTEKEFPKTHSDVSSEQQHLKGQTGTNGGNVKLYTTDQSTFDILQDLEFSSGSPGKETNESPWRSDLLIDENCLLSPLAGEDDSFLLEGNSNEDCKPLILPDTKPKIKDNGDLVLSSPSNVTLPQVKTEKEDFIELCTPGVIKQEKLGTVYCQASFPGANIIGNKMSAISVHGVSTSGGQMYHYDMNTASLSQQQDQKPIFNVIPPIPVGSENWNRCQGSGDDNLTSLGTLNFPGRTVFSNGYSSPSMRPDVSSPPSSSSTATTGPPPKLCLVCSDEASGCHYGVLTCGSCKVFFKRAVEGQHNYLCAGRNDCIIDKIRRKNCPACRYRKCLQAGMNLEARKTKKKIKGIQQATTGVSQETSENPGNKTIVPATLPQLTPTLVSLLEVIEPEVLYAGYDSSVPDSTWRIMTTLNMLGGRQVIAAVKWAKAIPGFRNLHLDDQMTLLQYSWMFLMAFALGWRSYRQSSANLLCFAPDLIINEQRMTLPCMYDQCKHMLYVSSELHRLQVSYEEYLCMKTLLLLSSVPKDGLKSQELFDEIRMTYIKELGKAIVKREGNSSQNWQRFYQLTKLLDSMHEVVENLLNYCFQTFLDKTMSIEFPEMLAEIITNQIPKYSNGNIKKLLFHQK
Nature of the test: Glucocorticoid Receptor Binding Assay ([3H]-dexamethasone, A549 cell extract). As to conditions: [3H]-dexamethasone binding, read-out: GR Ki. The procedure:
as §1
A549 human lung epithelial cells (ATCC) are grown at a scale where gram quantity cell pellets are obtained. Harvested cell pellets are washed twice in cold phosphate buffered saline, centrifuged, and resuspended in cold assay binding buffer. The assay binding buffer consists of 10% glycerol, 50 mM Tris-HCl (pH7.2), 75 mM sodium chloride, 1.5 mM magnesium chloride, 1.5 mM EDTA, and 10 mM sodium molybdate. Cell suspensions were lysed via sonication, centrifuged, and the “extract” supernatant is snap frozen and stored at −80 C until needed.
GR binding assays are performed in a final volume of 140 ul containing 50-200 ug of A549 cell extract and 1.86 nM [^3H]-dexamethasone (Amersham) plus varying concentrations of test compound or vehicle. Briefly, assays are prepared at RT in 96-well Fisher 3356 plates, each well containing 100 ul of A549 cell extract, 20 ul of [^3H]-dexamethasone, and 20 ul of test compound/vehicle. Incubations are carried out at 4 degrees Celsius for 16 hours. After incubation, 70 ul of 3× dextran-coated charcoal solution is added to each reaction, mixed, and incubated for 8 minutes at RT. 3×-dextran-coated charcoal solution consists of 250 ml assay binding buffer, 3.75 g Norit A charcoal (Sigma), and 1.25 g dextran T-70 (Amersham). Charcoal/unbound radioligand complexes are removed by centrifugation of the plate and 140 ul of supernatant from each well is transferred to another 96 well Optiplate (Packard Instruments). 200 ul of Microscint-20 scinillant (Packard Instruments) is added to each well and amount of receptor bound radioligand is determined using Packard Instruments TopCount instrument.

The mark [3] stands for this setting: [3H]-aldosterone binding, human MR expressed in Sf9 cells, read-out: MR Ki.

SMILES strings stand for the structures. Where two headings read alike, the source gives them in different places.

Regarding `CS(=O)(=O)Nc1cccc(C=C2c3ccccc3CCc3cc(O)ccc32)c1` (mixture of isomers) [Example 162, N-[3-(2-Hydroxy-10,11-dihydro-dibenzo[a,d]cyclohepten-5-ylidenemethyl)-phenyl]-methanesulfonamide], the Ki in test [1] (setting [3]) and in test [2] was below 500 nM each time.
With `CCS(=O)(=O)Nc1cccc(C=C2c3ccccc3CCc3cc(OC)ccc32)c1` (mixture of isomers) [Example 163, Ethanesulfonic acid [3-(2-methoxy-10,11-dihydro-dibenzo[a,d]cyclohepten-5-ylidenemethyl)-phenyl]-amide], the inhibitory constant (Ki) in test [1] (setting [3]) and in test [2] was below 500 nM each time.
Take `COc1ccc2c(c1)CCc1ccccc1C2=Cc1ccc(N)cc1` (mixture of isomers) [Example 166, 4-(2-Methoxy-10,11-dihydro-dibenzo[a,d]cyclohepten-5-ylidenemethyl)-phenylamine]: the Ki is below 500 nM in test [1] (setting [3]) and below 10000 nM in test [2].
The like results for `COc1ccc2c(c1)CCc1ccccc1C2=Cc1cccc(O)c1` (mixture of isomers) [Example 167, 3-(2-Methoxy-10,11-dihydro-dibenzo[a,d]cyclohepten-5-ylidenemethyl)-phenol] were, in that order, below 500 nM and below 500 nM.
With `COc1ccc2c(c1)CCc1ccccc1C2=Cc1ccc(O)cc1` (mixture of isomers) [Example 168, 4-(2-Methoxy-10,11-dihydro-dibenzo[a,d]cyclohepten-5-ylidenemethyl)-phenol], the Ki is below 500 nM in test [1] and below 1000 nM in test [2].
On to `Oc1ccc(C=C2c3ccccc3CCc3cc(O)ccc32)cc1` (mixture of isomers) [Example 169, 5-(4-Hydroxy-benzylidene)-10,11-dihydro-5H-dibenzo[a,d]cyclohepten-2-ol], for which the inhibitory constant (Ki) in test [1] (setting [3]) and in test [2] was below 500 nM in each case.
`CS(=O)(=O)Nc1cccc(C=C2c3ccccc3CCc3cc(O)c(O)cc32)c1` (mixture of isomers) [Example 171, N-[3-(2,3-Dihydroxy-10,11-dihydro-dibenzo[a,d]cyclohepten-5-ylidenemethyl)-phenyl]-methanesulfonamide]: the Ki in test [1] (setting [3]) and in test [2] was below 500 nM each time.
On to `CS(=O)(=O)Nc1cccc(C=C2c3ccccc3CCc3c(Cl)cccc32)c1` (mixture of isomers) [Example 205(a), N-[3-(1-Chloro-10,11-dihydro-dibenzo[a,d]cyclohepten-5-ylidenemethyl)-phenyl]-methanesulfonamide], for which the inhibition constant Ki in test [1] (setting [3]) and in test [2] was below 500 nM each time.
In the case of `CCS(=O)(=O)Nc1cccc(C=C2c3ccccc3CCc3c(Cl)cccc32)c1` (mixture of isomers) [Example 208(a), Ethanesulfonic acid [3-(1-chloro-10,11-dihydro-dibenzo[a,d]cyclohepten-5-ylidenemethyl)-phenyl]-amide], the Ki in test [1] (setting [3]) and in test [2] was below 500 nM each time.
As for `O=[N+]([O-])c1cccc(/C=C2/c3ccccc3OCc3c(Cl)cccc32)c1` [Example 272, 7-Chloro-11-(3-nitro-benzylidene)-6,11-dihydro-dibenzo[b,e]oxepine], the inhibition constant (Ki) in test [2] was below 10000 nM.
On the same count and under the same terms, the same measure for `CS(=O)(=O)Nc1cccc(/C=C2\c3ccccc3CCc3ccc(S(C)(=O)=O)cc32)c1` [Example 324]: below 1000 nM; for `CCOc1ccc2c(c1)CCc1ccccc1C2=Cc1cccc(NS(C)(=O)=O)c1` [Example 331]: below 500 nM; for `CCCOc1ccc2c(c1)CCc1ccccc1C2=Cc1cccc(NS(C)(=O)=O)c1` [Example 332]: below 500 nM.
On the same count and under the same terms, then `O=c1[nH]c2ccc(/C=C3/c4ccccc4COc4cc(F)ccc43)cc2[nH]1` [Example 631], with below 1000 nM.
On the same count and under the same terms, the same measure for `COc1cccc2c1SCc1ccccc1C2=Cc1cccc(NS(C)(=O)=O)c1` [Example 686]: below 500 nM; for `CCNC(=O)Nc1cccc(C=C2c3ccccc3CSc3c(C)cccc32)c1` [Example 689]: below 500 nM; for `O=S(=O)(Nc1cccc(/C=C2\c3ccccc3CSc3ccccc32)c1)c1ccc(Cl)c(Cl)c1` [Example 690]: below 1000 nM.
In the case of `CS(=O)(=O)Nc1cccc(C(C(=O)O)=C2c3ccccc3CCc3ccccc32)c1` [Example 754, (10,11-Dihydro-dibenzo[a,d]cyclohepten-5-ylidene)-(3-methanesulfonylamino-phenyl)-acetic acid], the Ki in test [2] is below 500 nM.

The record behind these values is patent publication US20060063759A1, “Tricyclic steroid hormone nuclear receptor modulators” (priority 2002, published 2006).
